Results on 16 compounds are retold here after patent US11286249B2, “Pyrrolidine compounds” (Eli Lilly and Company, priority 2019, dated 2022).

In one test the target is human Apo(a) protein (Homo sapiens, UniProt P08519). Briefly: In vitro Apo(a) binding assay (competitive SPA radioligand binding). To be noted: human Apo(a) with 17 Kringle repeats; geometric mean ± SEM (n). The procedure:
The in vitro binding affinity of compounds to the intended target human Apo(a) protein is tested in a competitive binding assay. Human Apo(a) protein containing 17 Kringle repeats is affinity purified from conditioned media of transiently transfected HEK-293F cells. All reagents are prepared in assay buffer containing 50 mM Tris-HCl pH 7.4, 0.1% BSA. The binding assay is conducted by adding to each well of a clear-bottom plate […] of (1) test compound in dilution series (final concentration […]), (2) Apo(a) protein (6 ng/well), (3) re-suspended Wheat Germ Agglutinin Polyvinyltoluene SPA beads (20 mg/ml), and (4) the radioligand, tritium-labeled (2S)-3-[3-[2-oxo-3-[3-(tritritiomethoxy)phenyl]imidazolidin-1-yl]phenyl]-2-[(3R)-pyrrolidin-3-yl]propanoic acid; hydrochloride (final concentration 0.52 nM). Plates are incubated for 60 minutes at RT and counted on TRILUX LSC. […] Data are analyzed by fitting to a standard single site binding model and the IC50 for the Example test compound is determined. […] Inhibition of the assembly of the LDL particle with apo(a) through binding to the Apo(a) protein supports a reduction in Lp(a) levels.

The target in test [1] is assembly of Lp(a) from Apo(a) and the LDL particle (Homo sapiens, UniProt P08519). Briefly: In vitro Lp(a) assembly assay (cell-free, HepG2 and HEK293 conditioned media, sandwich ELISA). In kind it is biochemical. To be noted: inhibition of Lp(a) formation, 37° C. for 2 hrs; geometric mean ± SEM (n). The procedure: The ability of compounds to inhibit the formation of Lp(a) particles in vitro is assessed by a cell-free assembly assay. Conditioned media (DMEM supplemented with 10% FBS, 20 mM HEPES, and 1× penicillin/streptomycin) is collected from confluent wild-type HepG2 cells (a source of endogenously expressed ApoB) and from a HEK293 stable cell line expressing human Apo(a) protein containing 17 Kringle repeats (selected on 1 mg/ml geneticin) after 24 hours of culture at 37° C. and 5% CO2. An in vitro assembly assay is conducted by combining equal parts of HepG2 and HEK293 conditioned media with the test compounds added in dilution series (final concentration 0.01˜100 nM). The reaction is incubated at 37° C. for 2 hrs and then stopped with the addition of 6-aminocaproic acid (EACA) to a final concentration of 150 mM. Lp(a) is detected using a sandwich ELISA with an anti-Lp(a) capture antibody and an HRP-conjugated anti-ApoB detection antibody. The ELISA is developed using TMB, stopped using 1 N sulfuric acid, and the signal is read at 450 nm on a Molecular Devices plate reader.
In general terms: An ELISA detects its analyte on a solid surface through an enzyme-linked reagent.

Another test relates to plasma Lp(a). Briefly: In vivo Lp(a) inhibition in mice. The conditions noted are these: for Lp(a) inhibition (% at 30 mpk): 30 mpk oral twice a day; for Lp(a) inhibition (% at 30 mpk) / ED50: day 3 at 8 h post morning oral dose; for Lp(a) inhibition (% at 30 mpk) / Lp(a) inhibition (%): mean ± SEM; for ED50: effective dose for 50% Lp(a) inhibition, oral, twice a day, ED50 ± standard error. On the procedure:
The ability of compounds to reduce steady-state Lp(a) level in vivo is assessed in a transgenic mouse model capable of producing humanized Lp(a) particles. In vivo effects of Lp(a) disruptor compounds are tested in 7 to 17-month-old female double transgenic mice expressing human apoB-100 and human apo(a) containing 17 Kringle repeats: B6.SJL-Tg(APOB)1102Sgy Tg(Alb-LPA)32Arte. Mice are housed with standard light cycle (12 hrs. light/12 hrs. dark), at RT 72±8° F. and relative humidity of 30˜70%, and with free access to water and normal chow diet (Harlan Tecklad diet 2014). Mice are randomized to treatment groups (n=5/group) 3 to 5 days before the study by body weight and baseline plasma Lp(a) concentration using BRAT (Block Randomized Allocation Tool) for the study. Mice are orally dosed (or subcutaneously where noted) with vehicle (oral dose vehicle: 10 mL/kg, 1% HEC, 0.25% Tween80, 0.01% Antifoam; subcutaneous dose vehicle: 5 mL/kg saline) or test compound at various dose levels twice a day (6:30 am and […]) for 5 days. Blood is collected in heparin-coated capillary tubes via tail bleed. Twenty μL of each blood sample is transferred to a DBS card (Whatman Cat #: WB12 9243) for drug exposure analysis. The remaining blood samples are centrifuged to separate plasma. Lp(a) concentration in plasma is measured using a sandwich ELISA as described for the in vitro Lp(a) assembly assay. The % inhibition for each dose group is determined with the mean the Lp(a) level of the vehicle control group set to 0% inhibition. […] ED50 (effective dose for 50% Lp(a) inhibition) calculations as determined by Threshold Minimum Effective Dose analysis.

[2] abbreviates: 30 mg/kg oral twice a day, day 3 at 4 h post morning dose.

Structures can show the parent of a compound that is named as a salt.

Sequence of assembly of Lp(a) from Apo(a) and the LDL particle (P08519 20-2040 limits assumed): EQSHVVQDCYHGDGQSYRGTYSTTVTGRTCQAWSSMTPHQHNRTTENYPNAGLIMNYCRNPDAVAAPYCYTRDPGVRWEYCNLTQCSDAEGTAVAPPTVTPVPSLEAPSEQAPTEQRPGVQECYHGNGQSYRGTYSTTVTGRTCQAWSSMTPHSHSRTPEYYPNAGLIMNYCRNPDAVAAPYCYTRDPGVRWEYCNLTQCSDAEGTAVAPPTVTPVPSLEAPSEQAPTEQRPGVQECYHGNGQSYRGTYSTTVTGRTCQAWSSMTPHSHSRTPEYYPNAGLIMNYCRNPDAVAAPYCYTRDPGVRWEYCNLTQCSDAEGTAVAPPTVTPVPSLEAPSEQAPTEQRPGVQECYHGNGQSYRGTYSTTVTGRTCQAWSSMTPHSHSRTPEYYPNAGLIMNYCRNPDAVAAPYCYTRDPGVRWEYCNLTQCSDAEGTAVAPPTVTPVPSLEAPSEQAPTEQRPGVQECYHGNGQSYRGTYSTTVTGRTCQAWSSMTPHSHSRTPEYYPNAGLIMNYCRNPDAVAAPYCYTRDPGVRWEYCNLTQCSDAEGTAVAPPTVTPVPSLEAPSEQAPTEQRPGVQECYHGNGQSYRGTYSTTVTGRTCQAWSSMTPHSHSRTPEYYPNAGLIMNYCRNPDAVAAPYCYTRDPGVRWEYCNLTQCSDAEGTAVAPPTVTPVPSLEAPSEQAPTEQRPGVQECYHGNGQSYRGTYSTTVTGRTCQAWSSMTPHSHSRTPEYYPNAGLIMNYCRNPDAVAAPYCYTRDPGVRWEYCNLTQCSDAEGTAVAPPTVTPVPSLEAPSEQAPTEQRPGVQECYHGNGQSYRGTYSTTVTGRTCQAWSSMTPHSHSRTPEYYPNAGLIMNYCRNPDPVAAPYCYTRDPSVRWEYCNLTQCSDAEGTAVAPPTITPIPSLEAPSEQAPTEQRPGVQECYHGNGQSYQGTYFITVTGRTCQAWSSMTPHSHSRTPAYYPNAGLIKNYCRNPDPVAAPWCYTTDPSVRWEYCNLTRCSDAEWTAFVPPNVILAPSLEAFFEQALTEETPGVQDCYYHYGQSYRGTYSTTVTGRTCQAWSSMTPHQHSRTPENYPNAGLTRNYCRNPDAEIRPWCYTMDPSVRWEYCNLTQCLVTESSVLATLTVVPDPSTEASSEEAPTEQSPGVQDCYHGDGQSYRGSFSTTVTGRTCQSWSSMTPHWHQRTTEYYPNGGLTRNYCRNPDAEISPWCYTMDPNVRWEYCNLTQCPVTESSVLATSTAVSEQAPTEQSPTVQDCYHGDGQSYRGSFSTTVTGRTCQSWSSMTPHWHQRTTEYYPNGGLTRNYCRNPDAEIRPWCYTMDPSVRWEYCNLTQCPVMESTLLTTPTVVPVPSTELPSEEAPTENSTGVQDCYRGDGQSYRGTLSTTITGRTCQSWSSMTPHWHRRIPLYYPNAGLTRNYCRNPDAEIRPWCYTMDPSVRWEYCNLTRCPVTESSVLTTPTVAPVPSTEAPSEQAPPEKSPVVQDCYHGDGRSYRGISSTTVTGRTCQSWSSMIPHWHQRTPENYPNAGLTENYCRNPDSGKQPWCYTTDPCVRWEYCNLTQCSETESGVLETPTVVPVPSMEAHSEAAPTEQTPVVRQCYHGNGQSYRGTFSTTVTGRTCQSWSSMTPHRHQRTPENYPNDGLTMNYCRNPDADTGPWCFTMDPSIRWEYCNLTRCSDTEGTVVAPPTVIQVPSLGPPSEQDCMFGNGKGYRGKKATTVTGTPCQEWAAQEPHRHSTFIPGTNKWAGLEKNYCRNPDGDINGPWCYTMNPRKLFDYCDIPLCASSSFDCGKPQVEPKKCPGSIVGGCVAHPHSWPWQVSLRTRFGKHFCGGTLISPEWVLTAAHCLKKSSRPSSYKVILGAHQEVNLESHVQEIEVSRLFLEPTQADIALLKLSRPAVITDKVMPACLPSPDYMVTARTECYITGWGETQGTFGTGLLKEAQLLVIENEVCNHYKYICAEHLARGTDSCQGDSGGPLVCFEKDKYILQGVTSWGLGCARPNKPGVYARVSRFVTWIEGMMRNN
Sequence of human Apo(a) protein (P08519 20-2040 limits assumed): as above

The term IC50 denotes the concentration at which inhibition is half-maximal. A high value points to lower potency. As a reminder, the ED50 is the midpoint of the dose-response relation. Low readings indicate an effect at a small dose, high ones a need for a large dose. For the compound `O=C(O)[C@@H](Cc1cccc(CN(Cc2cccc(C[C@H](C(=O)O)[C@H]3CCNC3)c2)Cc2cccc(C[C@H](C(=O)O)[C@H]3CCNC3)c2)c1)[C@H]1CCNC1` [Example 1, (2S)-3-[3-[[Bis[[3-[(2S)-2-carboxy-2-[(3R)-pyrrolidin-3-yl]ethyl]phenyl]methyl]amino]methyl]phenyl]-2-[(3R)-pyrrolidin-3-yl]propanoic acid; tetrahydrochloride], the IC50 on human Apo(a) protein was < 0.314 nM; in test [1], 0.0963 ± 0.0233 nM. The “Lp(a) inhibition (% at 30 mpk)” value in the test with plasma Lp(a) was determined as 91 ± 0.73%. In the test with plasma Lp(a), this compound showed an ED50 of 3.3 ± 0.53 mg/kg. Take `O=C(O)[C@@H](Cc1cccc(CNCc2cccc(C[C@H](C(=O)O)[C@H]3CCNC3)c2)c1)[C@H]1CCNC1` [Example 3, (2S)-3-[3-[[[3-[(2S)-2-Carboxy-2-[(3R)-pyrrolidin-3-yl]ethyl]phenyl]methylamino]methyl]phenyl]-2-[(3R)-pyrrolidin-3-yl]propanoic acid; trihydrochloride]: the values for the IC50 (on human Apo(a) protein; in test [1]) were 2.13 ± 0.159 nM and 0.934 ± 0.306 nM, respectively.

In the case of `COc1cc(F)cc(CN(Cc2cccc(C[C@H](C(=O)O)[C@H]3CCNC3)c2)Cc2cccc(C[C@H](C(=O)O)[C@H]3CCNC3)c2)c1` [Example 5, (2S)-3-[3-[[[3-[(2S)-2-Carboxy-2-[(3R)-pyrrolidin-3-yl]ethyl]phenyl]methyl-[(3-fluoro-5-methoxy-phenyl)methyl]amino]methyl]phenyl]-2-[(3R)-pyrrolidin-3-yl]propanoic acid; trihydrochloride], the IC50 in test [1] stood at 0.17 ± 0.0124 nM. Further, in the test on plasma Lp(a) (3 mg/kg oral twice a day, day 3 at 4 h post morning dose), the “Lp(a) inhibition (%)” value was determined as 43.8 ± 4.24%.

Consider `CC(Cc1cccc(CN(Cc2cccc(CC(C)(C(=O)O)[C@H]3CCNC3)c2)Cc2cccc(CC(C)(C(=O)O)[C@H]3CCNC3)c2)c1)(C(=O)O)[C@H]1CCNC1` (stereo partly drawn) [Example 6, 3-[3-[[bis[[3-[2-carboxy-2-[(3R)-pyrrolidin-3-yl]propyl]phenyl]methyl]amino]methyl]phenyl]-2-methyl-2-[(3R)-pyrrolidin-3-yl]propanoic acid; tetrahydrochloride], for which the IC50 is < 0.314 nM at human Apo(a) protein and 0.108 ± 0.0149 nM in test [1]. `O=C(O)[C@@H](Cc1cccc(Oc2cccc(C[C@H](C(=O)O)[C@H]3CCNC3)c2)c1)[C@H]1CCNC1` [Example 7, (2S)-3-[3-[3-[(2S)-2-carboxy-2-[(3R)-pyrrolidin-3-yl]ethyl]phenoxy]phenyl]-2-[(3R)-pyrrolidin-3-yl]propanoicacid; dihydrochloride] showed an IC50 in test [1] of 0.372 ± 0.0464 nM. The “Lp(a) inhibition (%)” value in the test with plasma Lp(a) (30 mg/kg subcutaneous dosing twice a day, day 3 at 4 h post morning dose) came out at 44.6 ± 5.0%.

For the compound `O=C(O)[C@@H](Cc1cccc(OCCOc2cccc(C[C@H](C(=O)O)[C@H]3CCNC3)c2)c1)[C@H]1CCNC1` [Example 8, (2S)-3-[3-[2-[3-[(2S)-2-carboxy-2-[(3R)-pyrrolidin-3-yl]ethyl]phenoxy]ethoxy]phenyl]-2-[(3R)-pyrrolidin-3-yl]propanoic acid; dihydrochloride], in test [1], it took 0.288 ± 0.19 nM to reach half-maximal inhibition (IC50). As for `O=C(O)[C@@H](Cc1cccc(COc2cccc(C[C@H](C(=O)O)[C@H]3CCNC3)c2)c1)[C@H]1CCNC1` [Example 9, (2S)-3-[3-[[3-[(2S)-2-Carboxy-2-[(3R)-pyrrolidin-3-yl]ethyl]phenoxy]methyl]phenyl]-2-[(3R)-pyrrolidin-3-yl]propanoic acid; dihydrochloride], the IC50 in test [1] worked out at 0.359 ± 0.0292 nM. The “Lp(a) inhibition (%)” value in the test on plasma Lp(a) (setting [2]) is reported as 56.5 ± 2.77%. Turning to `O=C(O)[C@@H](Cc1cccc(Sc2cccc(C[C@H](C(=O)O)[C@H]3CCNC3)c2)c1)[C@H]1CCNC1` [Example 10, (2S)-3-[3-[3-[(2S)-2-Carboxy-2-[(3R)-pyrrolidin-3-yl]ethyl]phenyl]sulfanylphenyl]-2-[(3R)-pyrrolidin-3-yl]propanoic acid; dihydrochloride], the IC50 in test [1] is 0.36 ± 0.119 nM. Besides, the “Lp(a) inhibition (%)” value in the test with plasma Lp(a) (setting [2]) is listed as 43.6 ± 4.6%. In test [1], `O=C(O)[C@@H](Cc1cccc([S+]([O-])c2cccc(C[C@H](C(=O)O)[C@H]3CCNC3)c2)c1)[C@H]1CCNC1` [Example 11, (2S)-3-[3-[3-[(2S)-2-Carboxy-2-[(3R)-pyrrolidin-3-yl]ethyl]phenyl]sulfinylphenyl]-2-[(3R)-pyrrolidin-3-yl]propanoic acid; dihydrochloride] registered an IC50 of 0.396 ± 0.241 nM. For `O=C(O)[C@@H](Cc1cccc(S(=O)(=O)c2cccc(C[C@H](C(=O)O)[C@H]3CCNC3)c2)c1)[C@H]1CCNC1` [Example 12, (2S)-3-[3-[3-[(2S)-2-Carboxy-2-[(3R)-pyrrolidin-3-yl]ethyl]phenyl]sulfonylphenyl]-2-[(3R)-pyrrolidin-3-yl]propanoicacid; dihydrochloride], half-maximal inhibition in test [1] (IC50) required 0.235 ± 0.0509 nM. Besides, the “Lp(a) inhibition (%)” value in the test with plasma Lp(a) (30 mg/kg oral twice a day, day 3, samples taken at 8 h post oral dosing) is recorded as 50 ± 3.82^3%.

The compound `O=C(O)[C@@H](Cc1cccc(CNc2cccc(C[C@H](C(=O)O)[C@H]3CCNC3)c2)c1)[C@H]1CCNC1` [Example 13, (2S)-3-[3-[[3-[(2S)-2-Carboxy-2-[(3R)-pyrrolidin-3-yl]ethyl]anilino]methyl]phenyl]-2-[(3R)-pyrrolidin-3-yl]propanoicacid; trihydrochloride] registered an IC50 in test [1] of 2.39 ± 0.61 nM. As for `O=C(O)[C@@H](Cc1cccc(Nc2cccc(C[C@H](C(=O)O)[C@H]3CCNC3)c2)c1)[C@H]1CCNC1` [Example 14, (2S)-3-[3-[3-[(2S)-2-Carboxy-2-[(3R)-pyrrolidin-3-yl]ethyl]anilino]phenyl]-2-[(3R)-pyrrolidin-3-yl]propanoic acid; dihydrochloride], the half-maximal inhibitory concentration (IC50) on human Apo(a) protein is < 0.314 nM. This compound had an IC50 in test [1] of 0.348 ± 0.0984 nM. Further, in the test on plasma Lp(a), the “Lp(a) inhibition (% at 30 mpk)” value worked out at 72 ± 2.23% and the ED50 turned out to be 14.6 ± 2.48 mg/kg. Turning to `CN1CC[C@H]([C@H](Cc2cccc(Nc3cccc(C[C@H](C(=O)O)[C@H]4CCN(C)C4)c3)c2)C(=O)O)C1` [Example 15, (2S)-3-[3-[3-[(2S)-2-carboxy-2-[(3R)-1-methylpyrrolidin-3-yl]ethyl]anilino]phenyl]-2-[(3R)-1-methylpyrrolidin-3-yl]propanoic acid; dihydrochloride], 54.6 ± 9.15 nM corresponded to half-maximal inhibition in test [1] (IC50). On the same count and under the same terms, with `O=C(O)[C@@H](Cc1cccc(NS(=O)(=O)Nc2cccc(C[C@H](C(=O)O)[C@H]3CCNC3)c2)c1)[C@H]1CCNC1` [Example 16, (2S,2′S)-3,3′-[Sulfonylbis(azanediyl-3,1-phenylene)]bis{2-[(3R)-pyrrolidin-3-yl]propanoic acid}; dihydrochloride] the figure was 0.563 ± 0.119 nM. For `Cl.O=C(O)[C@@H](Cc1ccccc1)[C@H]1CCNC1` [Example 17, (2S)-3-Phenyl-2-[(3R)-pyrrolidin-3-yl]propanoic acid; hydrochloride], in the test with plasma Lp(a), the “Lp(a) inhibition (% at 30 mpk)” value is 60 ± 3.46% and the ED50 stood at 20.6 ± 1.79 mg/kg. Taken in the same sequence, the figures for `Cl.O=C(O)[C@H](Cc1ccccc1)[C@@H]1CCNC1` [Example 18, (2R)-3-Phenyl-2-[(3S)-pyrrolidin-3-yl]propanoic acid; hydrochloride] were 68 ± 1.82% and 7.6 ± 2.43 mg/kg.
